The values below come from patent US20070135490A1, “Phenetanolamine derivatives” (priority 2003, published 2007).

The experiment concerns the target T1, human beta-2 receptor (Homo sapiens, UniProt P07550).
T1 construct: expressed in transfected cells; host or cells: Chinese hamster ovary cells (whole cells or membranes derived from them)
Put plainly: Chinese hamster ovary cells co-expressing the human receptor with a reporter gene, cAMP measurement in whole cells or membranes (Method 2). Type of experiment: cell-based. The conditions noted are these: CHO cells or membranes; for EC50: read-out: pEC50 at the human beta-2 receptor (converted). How it is done:
Potency of compounds of the invention at the human beta 2, 1 and 3 receptors was also determined using Chinese hamster ovary cells co-expressing the human receptor with a reporter gene. Studies were performed using either whole cells or membranes derived from those cells.
The three beta-receptors are coupled via the Gs G-protein to cause a simulation of adenylate cyclase resulting in increased levels of cAMP in the cell. For direct cAMP measurements either membranes or cells have been used with either the HitHunter enzyme fragment complementation kit (DiscoveRx) or the FP^2 fluorescence polarisation kit (Perkin Elmer) to quantify the levels of cAMP present. These assays provide a measure of agonist potency and intrinsic activity of the compounds at the various receptors. […]
In this assay the potency of compounds at the human beta-2 receptor is expressed as a pEC50 value. Compounds of examples 12-26, 28-50 and 52-64 had pEC50 values greather than 6. […] No result is available for the compound of example 51.

With `NS(=O)(=O)c1cccc(CCOCc2cccc(CCNC[C@H](O)c3ccc(O)c(CO)c3)c2)c1` [Example 55, Formic acid compound with 3-[2-({3-[2-({(2R)-2-hydroxy-2-[4-hydroxy-3-(hydroxymethyl)phenyl]ethyl}amino)ethyl]benzyl}oxy)ethyl]benzenesulfonamide (1:1)], the EC50 was under 1000 nM. Turning to `C[C@H](OCc1cccc(CCNC[C@H](O)c2ccc(O)c(CO)c2)c1)c1ccccc1` [Example 45, Formic acid compound with 2-(hydroxymethyl)-4-[(1R)-1-hydroxy-2-({2-[3-({[(1S)-1-phenylethyl]oxy}methyl)phenyl]ethyl}amino)ethyl]phenol (1:1)], the EC50 is under 1000 nM. Take `O=S(=O)(c1cccc(CCCOCc2cccc(CCNC[C@H](O)c3ccc(O)c(CO)c3)c2)c1)C1CCCC1` [Example 31, Formic acid compound with 4-[(1R)-2-({2-[3-({3-[3-(cyclopentylsulfonyl)phenyl]propoxy}methyl)phenyl]ethyl}amino)-1-hydroxyethyl]-2-(hydroxymethyl)phenol (1:1)]: the EC50 is under 1000 nM. As to `Cc1cc(C)cc(COCCOCc2cccc(CCNC[C@H](O)c3ccc(O)c(CO)c3)c2)c1` [Example 16, Formic acid compound with 4-[(1R)-2-({2-[3-({2-[(3,5-dimethylbenzyl)oxy]ethoxy}methyl)phenyl]ethyl}amino)-1-hydroxyethyl]-2-(hydroxymethyl)phenol (1:1)], the EC50 is under 1000 nM. Same read-out and setting: under `OCc1cc([C@@H](O)CNCCc2cccc(COCCCCc3cccc(O)c3)c2)ccc1O` [Example 19, Formic acid compound with 4-((1R)-1-hydroxy-2-{[2-(3-{[4-(3-hydroxyphenyl)butoxy]methyl}phenyl)ethyl]amino}ethyl)-2-(hydroxymethyl)phenol (1:1)] stands under 1000 nM; under `OCc1cc([C@@H](O)CNCCc2cccc(COCc3c(Cl)cccc3Cl)c2)ccc1O` [Example 47, Formic acid compound with 4-((1R)-2-{[2-(3-{[(2,6-dichlorobenzyl)oxy]methyl}phenyl)ethyl]amino}-1-hydroxyethyl)-2-(hydroxymethyl)phenol (1:1)], under 1000 nM. On the same count and under the same terms, under `CC(OCCOCc1cccc(CCNC[C@H](O)c2ccc(O)c(CO)c2)c1)c1ccccc1` (stereo partly drawn) [Example 59, Formic acid compound with 2-(hydroxymethyl)-4-((1R)-1-hydroxy-2-{[2-(3-{[2-(1-phenylethoxy)ethoxy]methyl}phenyl)ethyl]amino}ethyl)phenol (1:1)] stands under 1000 nM; under `OCc1cc([C@@H](O)CNCCc2cccc(COCCOc3ccccc3)c2)ccc1O` [Example 38, Formic acid compound with 2-(hydroxymethyl)-4-{(1R)-1-hydroxy-2-[(2-{3-[(2-phenoxyethoxy)methyl]phenyl}ethyl)amino]ethyl}phenol (1:1)], under 1000 nM; under `O=S(=O)(c1cccc(CCOCc2cccc(CCNC[C@H](O)c3ccc(O)c(CO)c3)c2)c1)C1CCCC1` [Example 60, Formic acid compound with 4-[(1R)-2-({2-[3-({2-[3-(cyclopentylsulfonyl)phenyl]ethoxy}methyl)phenyl]ethyl}amino)-1-hydroxyethyl]-2-(hydroxymethyl)phenol (1:1)], under 1000 nM. As to `CS(=O)(=O)c1ccc(COCc2cccc(CCNC[C@H](O)c3ccc(O)c(CO)c3)c2)cc1` [Example 24, Formic acid compound with 2-(hydroxymethyl)-4-[(1R)-1-hydroxy-2-({2-[3-({[4-(methylsulfonyl)benzyl]oxy}methyl)phenyl]ethyl}amino)ethyl]phenol (1:1)], the EC50 was under 1000 nM. For the molecule `NC(=O)c1cccc(COCCOCc2cccc(CCNC[C@H](O)c3ccc(O)c(CO)c3)c2)c1` [Example 52, Formic acid compound with 3-{[2-({3-[2-({(2R)-2-hydroxy-2-[4-hydroxy-3-(hydroxymethyl)phenyl]ethyl}amino)ethyl]benzyl}oxy)ethoxy]methyl}benzamide (1:1)], the EC50 was under 1000 nM. With `N#Cc1ccc(CCCOCc2cccc(CCNC[C@H](O)c3ccc(O)c(CO)c3)c2)cc1` [Example 20, Formic acid compound with 4-[3-({3-[2-({(2R)-2-hydroxy-2-[4-hydroxy-3-(hydroxymethyl)phenyl]ethyl}amino)ethyl]benzyl}oxy)propyl]benzonitrile (1:1)], the EC50 was under 1000 nM. Same read-out and setting: then `Cc1cc(C)cc(COCc2cccc(CCNC[C@H](O)c3ccc(O)c(CO)c3)c2)c1` [Example 46, Formic acid compound with 4-((1R)-2-{[2-(3-{[(3,5-dimethylbenzyl)oxy]methyl}phenyl)ethyl]amino}-1-hydroxyethyl)-2-(hydroxymethyl)phenol (1:1)], with under 1000 nM; and `OCc1cc([C@@H](O)CNCCc2cccc(COCCOCc3cccc(F)c3)c2)ccc1O` [Example 15, Formic acid compound with 4-[(1R)-2-({2-[3-({2-[(3-fluorobenzyl)oxy]ethoxy}methyl)phenyl]ethyl}amino)-1-hydroxyethyl]-2-(hydroxymethyl)phenol (1:1)], with under 1000 nM; and `O=S(=O)(c1ccc(CCCOCc2cccc(CCNC[C@H](O)c3ccc(O)c(CO)c3)c2)cc1)C1CCCC1` [Example 30, Formic acid compound with 4-[(1R)-2-({2-[3-({3-[4-(cyclopentylsulfonyl)phenyl]propoxy}methyl)phenyl]ethyl}amino)-1-hydroxyethyl]-2-(hydroxymethyl)phenol (1:1)], with under 1000 nM. Same read-out and setting: under `O=S(=O)(c1cccc(CCCCOCc2cccc(CCNC[C@H](O)c3ccc(O)c(CO)c3)c2)c1)C1CCCC1` [Example 61, Formic acid compound with 4-[(1R)-2-({2-[3-({4-[3-(cyclopentylsulfonyl)phenyl]butoxy}methyl)phenyl]ethyl}amino)-1-hydroxyethyl]-2-(hydroxymethyl)phenol (1:1)] stands under 1000 nM; under `OCc1cc([C@@H](O)CNCCc2cccc(COCCCc3cccc(O)c3)c2)ccc1O` [Example 28, Formic acid compound with 4-((1R)-1-hydroxy-2-{[2-(3-{[3-(3-hydroxyphenyl)propoxy]methyl}phenyl)ethyl]amino}ethyl)-2-(hydroxymethyl)phenol (1:1)], under 1000 nM; under `OCc1cc([C@@H](O)CNCCc2cccc(COCc3ccc(F)cc3)c2)ccc1O` [Example 50, Formic acid compound with 4-((1R)-2-{[2-(3-{[(4-fluorobenzyl)oxy]methyl}phenyl)ethyl]amino}-1-hydroxyethyl)-2-(hydroxymethyl)phenol (1:1)], under 1000 nM. Regarding “Formic acid compound with 4-((1R)-1-hydroxy-2-{[2-(3-{[3-(2-hydroxyphenyl)propoxy]methyl}phenyl)ethyl]amino}ethyl)-2-(hydroxymethyl)phenol (1:1) [Example 27]”, the “pEC50 at the human beta-2 receptor” value was “less than 6”. As for `NC(=O)Nc1cccc(CCCCOCc2cccc(CCNC[C@H](O)c3ccc(O)c(CO)c3)c2)c1` [Example 58, Formic acid compound with N-{3-[4-({3-[2-({(2R)-2-hydroxy-2-[4-hydroxy-3-(hydroxymethyl)phenyl]ethyl}amino)ethyl]benzyl}oxy)butyl]phenyl}urea (1:1)], the EC50 is under 1000 nM. `N#Cc1cccc(CCCOCc2cccc(CCNC[C@H](O)c3ccc(O)c(CO)c3)c2)c1` [Example 22, Formic acid compound with 3-[3-({3-[2-({(2R)-2-hydroxy-2-[4-hydroxy-3-(hydroxymethyl)phenyl]ethyl}amino)ethyl]benzyl}oxy)propyl]benzonitrile (1:1)]: the EC50 was under 1000 nM. For the molecule `NC(=O)c1cccc(COCc2cccc(CCNC[C@H](O)c3ccc(O)c(CO)c3)c2)c1` [Example 53, Formic acid compound with 3-[({3-[2-({(2R)-2-hydroxy-2-[4-hydroxy-3-(hydroxymethyl)phenyl]ethyl}amino)ethyl]benzyl}oxy)methyl]benzamide (1:1)], the EC50 is under 1000 nM. Take `COc1cccc(COCCOCc2cccc(CCNC[C@H](O)c3ccc(O)c(CO)c3)c2)c1` [Example 17, Formic acid compound with 4-[(1R)-1-hydroxy-2-({2-[3-({2-[(3-methoxybenzyl)oxy]ethoxy}methyl)phenyl]ethyl}amino)ethyl]-2-(hydroxymethyl)phenol (1:1)]: the EC50 was under 1000 nM. As to `NS(=O)(=O)c1cccc(COCc2cccc(CCNC[C@H](O)c3ccc(O)c(CO)c3)c2)c1` [Example 64, 3-[({3-[2-({(2R)-2-Hydroxy-2-[4-hydroxy-3-(hydroxymethyl)phenyl]ethyl}amino)ethyl]benzyl}oxy)methyl]benzenesulfonamide acetate], the EC50 was under 1000 nM. The same measure, in the same setting: under `CS(=O)(=O)c1cccc(CCCCOCc2cccc(CCNC[C@H](O)c3ccc(O)c(CO)c3)c2)c1` [Example 62, Formic acid compound with 2-(hydroxymethyl)-4-[(1R)-1-hydroxy-2-({2-[3-({4-[3-(methylsulfonyl)phenyl]butoxy}methyl)phenyl]ethyl}amino)ethyl]phenol (1:1)] stands under 1000 nM. In the case of `OCc1cc([C@@H](O)CNCCc2cccc(COCc3cccc(F)c3)c2)ccc1O` [Example 49, Formic acid compound with 4-((1R)-2-{[2-(3-{[(3-fluorobenzyl)oxy]methyl}phenyl)ethyl]amino}-1-hydroxyethyl)-2-(hydroxymethyl)phenol (1:1)], the EC50 was under 1000 nM.
